Test results as given in US11708562B2, “Differentiation of human embryonic stem cells” (Janssen Biotech, Inc., priority 2006, dated 2023).

Tested on: H9P33, H9P44 and H9P48 cells
Assay: Microarray analysis of definitive endoderm on MEFs vs MATRIGEL +/- Wnt-3A (Table VI)
Settings: DE treatment in low serum
Procedure: Controls for each group included cells plated on […]-coated dishes and cultured in MEF-conditioned medium or cells plated on MEFs and cultured in ES medium. All groups contained three biological replicates and each biological replicate was repeated on two separate gene chips.
Sample preparation, hybridization, and image analysis were performed according to the Affymetrix Human Genome U133 Plus 2.0 Array. Following normalization and a log transformation, data analysis was performed using OmniViz® software (MA) and […] (VizXLabs, WA). Significant differences in gene expression between the samples were evaluated using analysis of variance and an F-test with adjusted P-value (Benjamini and Hochberg correction) of ≤0.05. Only genes with a present call in at least one group were included in the analysis.

**Q.** How did the “mean normalized intensity (log format), Human (clone HSY3RR) neuropeptide Y receptor (NPYR) mRNA” value (on MATRIGEL) turn out when “Activin A: a member of the TGFβ superfamily; growth factor (R&D Systems) used to differentiate human embryonic stem cells” was run?
**A.** 1.775

**Q.** And the “mean normalized intensity (log format), Human DNA sequence from clone RP1-181C24 on chromosome 6p11.1-12.2 (3 end of the BMP5 gene)” value (on MATRIGEL)?
**A.** −3.723

**Q.** And the “mean normalized intensity (log format), Human Fritz mRNA, complete cds” value (on MATRIGEL)?
**A.** 0.4366

**Q.** And the “mean normalized intensity (log format), Human dipeptidyl peptidase IV (CD26) mRNA” value (on MATRIGEL)?
**A.** −3.611

**Q.** What about the “mean normalized intensity (log format), Human glycophorin HeP2 mRNA, partial cds” value (on MATRIGEL) of the same substance?
**A.** −0.8435

**Q.** What about the “mean normalized intensity (log format), Human link protein mRNA, complete cds” value (on MATRIGEL) of the same substance?
**A.** −1.94

**Q.** And the “mean normalized intensity (log format), Human mRNA for alpha-1 type II collagen” value (on MATRIGEL)?
**A.** −2.8736

**Q.** And the “mean normalized intensity (log format), Human mRNA for apolipoprotein AI (apo AI)” value (on MATRIGEL)?
**A.** 0.2151

**Q.** What about the “mean normalized intensity (log format), Human prostatic secretory protein 57 mRNA” value (on MATRIGEL) of the same substance?
**A.** −3.013

**Q.** What about the “mean normalized intensity (log format), KIAA0878 protein” value (on MATRIGEL) of the same substance?
**A.** 1.1189

**Q.** And the “mean normalized intensity (log format), KIAA1462 protein” value (on MATRIGEL)?
**A.** −3.846

**Q.** And the “mean normalized intensity (log format), MCP-1 = monocyte chemotactic protein” value (on MATRIGEL)?
**A.** −2.276

**Q.** What about the “mean normalized intensity (log format), Rho GDP dissociation inhibitor (GDI) alpha” value (on MATRIGEL) of the same substance?
**A.** −1.544

**Q.** What about the “mean normalized intensity (log format), WAS protein family, member 2” value (on MATRIGEL) of the same substance?
**A.** −2.187

**Q.** What about the “mean normalized intensity (log format), collagen, type IX, alpha 2” value (on MATRIGEL) of the same substance?
**A.** 1.27

**Q.** And the “mean normalized intensity (log format), collagen, type VI, alpha 1” value (on MATRIGEL)?
**A.** −1.418

**Q.** And the “mean normalized intensity (log format), glycophorin B (includes Ss blood group)” value (on MATRIGEL)?
**A.** −2.852

**Q.** And the “mean normalized intensity (log format), hepatocyte nuclear factor 4, alpha” value (on MATRIGEL)?
**A.** −4.266

**Q.** What about the “mean normalized intensity (log format), homeo box HB9” value (on MATRIGEL) of the same substance?
**A.** −1.656

**Q.** And the “mean normalized intensity (log format), hypothetical protein FLJ21032” value (on MATRIGEL)?
**A.** 0.3557

**Q.** And the “mean normalized intensity (log format), hypothetical protein FLJ23091” value (on MATRIGEL)?
**A.** 0.3234

**Q.** What about the “mean normalized intensity (log format), hypothetical protein FLJ23403” value (on MATRIGEL) of the same substance?
**A.** −1.456

**Q.** What about the “mean normalized intensity (log format), matrix metalloproteinase 14 (membrane-inserted)” value (on MATRIGEL) of the same substance?
**A.** −2.057

**Q.** What about the “mean normalized intensity (log format), microfibrillar-associated protein 4” value (on MATRIGEL) of the same substance?
**A.** 0.06379

**Q.** And the “mean normalized intensity (log format), myristoylated alanine-rich protein kinase C substrate (MARCKS, 80K-L)” value (on MATRIGEL)?
**A.** −0.7172

**Q.** What about the “mean normalized intensity (log format), neuropilin 1” value (on MATRIGEL) of the same substance?
**A.** −1.623

**Q.** What about the “mean normalized intensity (log format), noggin” value (on MATRIGEL) of the same substance?
**A.** −1.636

**Q.** What about the “mean normalized intensity (log format), phorbolin-like protein MDS019” value (on MATRIGEL) of the same substance?
**A.** −1.118

**Q.** And the “mean normalized intensity (log format), solute carrier family 16 (monocarboxylic acid transporters), member 3” value (on MATRIGEL)?
**A.** −0.06641

**Q.** What about the “mean normalized intensity (log format), splicing factor, arginineserine-rich 5” value (on MATRIGEL) of the same substance?
**A.** 0.7481

**Q.** And the “mean normalized intensity (log format), stanniocalcin 1” value (on MATRIGEL)?
**A.** 2.411

**Q.** What about the “mean normalized intensity (log format), 6-phosphofructo-2-kinasefructose-2,6-biphosphatase 4” value (on MEFS) of the same substance?
**A.** 1.6

**Q.** What about the “mean normalized intensity (log format), Cluster Incl. AB028021: Homo sapiens HNF-3beta mRNA for hepatocyte nuclear factor-3 beta” value (on MEFS) of the same substance?
**A.** 4.117

**Q.** And the “mean normalized intensity (log format), ESTs, Highly similar to IHH_HUMAN INDIAN HEDGEHOG PROTEIN PRECURSOR (H. sapiens)” value (on MEFS)?
**A.** 0.5905

**Q.** What about the “mean normalized intensity (log format), ESTs, Moderately similar to JE0284 Mm-1 cell derived transplantability-associated protein 1b (H. sapiens)” value (on MEFS) of the same substance?
**A.** 4.222

**Q.** And the “mean normalized intensity (log format), ESTs, Weakly similar to FCE2 MOUSE LOW AFFINITY IMMUNOGLOBULIN EPSILON FC RECEPTOR (M. musculus)” value (on MEFS)?
**A.** 3.48

**Q.** What about the “mean normalized intensity (log format), ESTs, Weakly similar to the 331st table hypothetical protein KIAA0555 (H. sapiens)” value (on MEFS) of the same substance?
**A.** 0.4436

**Q.** What about the “mean normalized intensity (log format), G protein-coupled receptor” value (on MEFS) of the same substance?
**A.** 5.053

**Q.** What about the “mean normalized intensity (log format), G protein-coupled receptor 49” value (on MEFS) of the same substance?
**A.** 2.505

**Q.** What about the “mean normalized intensity (log format), Homo sapiens HNF-3beta mRNA for hepatocyte nuclear factor-3 beta” value (on MEFS) of the same substance?
**A.** 2.825

**Q.** And the “mean normalized intensity (log format), Homo sapiens KIAA0878 protein (KIAA0878), mRNA” value (on MEFS)?
**A.** 5.654

**Q.** What about the “mean normalized intensity (log format), Homo sapiens Kell blood group (KEL), mRNA” value (on MEFS) of the same substance?
**A.** −0.3839

**Q.** And the “mean normalized intensity (log format), Homo sapiens MLL septin-like fusion (MSF), mRNA” value (on MEFS)?
**A.** −1.5

**Q.** What about the “mean normalized intensity (log format), Homo sapiens Mix-like homeobox protein 1 (MILD1) mRNA” value (on MEFS) of the same substance?
**A.** 0.922

**Q.** And the “mean normalized intensity (log format), Homo sapiens Rho GTPase activating protein 6 (ARHGAP6), transcript variant 2, mRNA” value (on MEFS)?
**A.** −1.285

**Q.** What about the “mean normalized intensity (log format), Homo sapiens TBX3-iso protein (TBX3-iso), mRNA” value (on MEFS) of the same substance?
**A.** 1.07

**Q.** What about the “mean normalized intensity (log format), Homo sapiens angiopoietin 2 (ANGPT2), mRNA” value (on MEFS) of the same substance?
**A.** 0.5968

**Q.** What about the “mean normalized intensity (log format), Homo sapiens ankyrin-like with transmembrane domains 1 (ANKTM1), mRNA” value (on MEFS) of the same substance?
**A.** 2.819

**Q.** What about the “mean normalized intensity (log format), Homo sapiens apolipoprotein A-I (APOA1), mRNA” value (on MEFS) of the same substance?
**A.** 2.469

**Q.** And the “mean normalized intensity (log format), Homo sapiens apolipoprotein A-II (APOA2), mRNA” value (on MEFS)?
**A.** 4.469

**Q.** What about the “mean normalized intensity (log format), Homo sapiens arylsulfatase E (chondrodysplasia punctata 1) (ARSE), mRNA” value (on MEFS) of the same substance?
**A.** 3.184

**Q.** What about the “mean normalized intensity (log format), Homo sapiens atrophin-1 interacting protein 1; activin receptor interacting protein 1 (KIAA0705), mRNA” value (on MEFS) of the same substance?
**A.** −1.32

**Q.** What about the “mean normalized intensity (log format), Homo sapiens beta-site APP cleaving enzyme (BACE) mRNA” value (on MEFS) of the same substance?
**A.** 1.754

**Q.** What about the “mean normalized intensity (log format), Homo sapiens cDNA FLJ11550 fis, clone HEMBA1002970” value (on MEFS) of the same substance?
**A.** 4.216

**Q.** And the “mean normalized intensity (log format), Homo sapiens cDNA FLJ12993 fis, clone NT2RP3000197” value (on MEFS)?
**A.** 2.069

**Q.** And the “mean normalized intensity (log format), Homo sapiens cDNA FLJ13221 fis, clone NT2RP4002075” value (on MEFS)?
**A.** 1.31

**Q.** And the “mean normalized intensity (log format), Homo sapiens cardiac ventricular troponin C mRNA” value (on MEFS)?
**A.** 1.4377

**Q.** What about the “mean normalized intensity (log format), Homo sapiens cartilage linking protein 1 (CRTL1), mRNA” value (on MEFS) of the same substance?
**A.** −0.8052

**Q.** What about the “mean normalized intensity (log format), Homo sapiens cell adhesion molecule with homology to L1CAM (close homologue of L1) (CHL1), mRNA” value (on MEFS) of the same substance?
**A.** −2.5002

**Q.** And the “mean normalized intensity (log format), Homo sapiens chromosome 19, cosmid R31181” value (on MEFS)?
**A.** 0.2239

**Q.** And the “mean normalized intensity (log format), Homo sapiens clone 23736 mRNA sequence” value (on MEFS)?
**A.** 4.507

**Q.** What about the “mean normalized intensity (log format), Homo sapiens cryptic mRNA, complete cds” value (on MEFS) of the same substance?
**A.** −0.6735

**Q.** And the “mean normalized intensity (log format), Homo sapiens cystatin SA (CST2), mRNA” value (on MEFS)?
**A.** 2.1671

**Q.** And the “mean normalized intensity (log format), Homo sapiens cystatin SN (CST1), mRNA” value (on MEFS)?
**A.** 4.64

**Q.** What about the “mean normalized intensity (log format), Homo sapiens cytidine deaminase (CDA), mRNA” value (on MEFS) of the same substance?
**A.** −1.67

**Q.** What about the “mean normalized intensity (log format), Homo sapiens dual specificity phosphatase 4 (DUSP4), mRNA” value (on MEFS) of the same substance?
**A.** 4.122

**Q.** And the “mean normalized intensity (log format), Homo sapiens fibroblast growth factor 8 (androgen-induced) (FGF8), mRNA” value (on MEFS)?
**A.** 0.01583

**Q.** What about the “mean normalized intensity (log format), Homo sapiens fibroblast growth factor 17 (FGF17), mRNA” value (on MEFS) of the same substance?
**A.** 2.4872

**Q.** What about the “mean normalized intensity (log format), Homo sapiens frizzled-related protein (FRZB), mRNA” value (on MEFS) of the same substance?
**A.** 3.676

**Q.** What about the “mean normalized intensity (log format), Homo sapiens gastrin-releasing peptide (GRP), mRNA” value (on MEFS) of the same substance?
**A.** 0.5098

**Q.** What about the “mean normalized intensity (log format), Homo sapiens glycophorin B (includes Ss blood group) (GYPB), mRNA” value (on MEFS) of the same substance?
**A.** 0.1803

**Q.** What about the “mean normalized intensity (log format), Homo sapiens glycophorin E (GYPE), mRNA” value (on MEFS) of the same substance?
**A.** −1.501
